Consider 35 compounds from patent publication US20220062278A1, “SMALL MOLECULE INHIBITORS OF THE ANDROGEN RECEPTOR ACTIVITY AND/OR EXPRESSION AND USES THEREOF” (Arizona Board of Regents on Behalf of the Univeristy of …, priority 2018, published 2022).

The assay concerns the target T1, AR (Homo sapiens, UniProt P10275).
T1 sequence (P10275 669-920 limits assumed): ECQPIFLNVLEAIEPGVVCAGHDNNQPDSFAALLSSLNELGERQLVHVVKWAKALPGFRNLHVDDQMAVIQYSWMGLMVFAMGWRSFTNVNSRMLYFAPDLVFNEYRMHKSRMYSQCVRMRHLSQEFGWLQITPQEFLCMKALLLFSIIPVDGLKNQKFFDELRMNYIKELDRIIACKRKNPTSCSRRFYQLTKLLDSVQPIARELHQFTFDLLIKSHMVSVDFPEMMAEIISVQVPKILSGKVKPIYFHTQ
Description: GeneBlazer assay, inhibition against AR activity. Format: cell-based. The note with it: Table II. An excerpt:
Tables II, III and IV show % inhibition against AR activity at 10 μm within a GeneBlazer assay, and IC50 values (nM) in GeneBlazer assay.

Broadly, the inhibition is the change of the read-out against control, counted positive when it falls. What is called IC50 is the midpoint of a concentration-inhibition curve. A high value points to weaker potency. For `CCCCn1nnnc1C(c1cccc(O)c1)N1CCN(c2c(Cl)cncc2Cl)CC1` (centres unmarked) [Compound 1, 3-((1-butyl-1H-tetrazol-5-yl)(4-(3,5-dichloropyridin-4-yl)piperazin-1-yl)methyl)phenol], the inhibition at 10 µM worked out at 81.5% and inhibition was half-maximal at 45.9 nM (IC50).
Turning to `CC(C)(C)n1nnnc1C(c1cc2ccccc2o1)N1CCN(c2c(Cl)cncc2Cl)CC1` (centres unmarked) [Compound 2, 1-(benzofuran-2-yl(1-(tert-butyl)-1H-tetrazol-5-yl)methyl)-4-(3,5-dichloropyridin-4-yl)piperazine], the inhibition at 10 µM came to 108% and the IC50 came out at 557 nM.
For `CCCCn1nnnc1C(c1ccnc2ccccc12)N1CCN(c2c(Cl)cncc2Cl)CC1` (centres unmarked) [Compound 3, 4-((1-butyl-1H-tetrazol-5-yl)(4-(3,5-dichloropyridin-4-yl)piperazin-1-yl)methyl)quinoline], the inhibition at 10 µM was found to be 110% and inhibition was half-maximal at 523 nM (IC50).
As for `CCCCn1nnnc1C(c1ccccc1)N1CCN(c2c(Cl)cncc2Cl)CC1` (centres unmarked) [Compound 4, 1-((1-butyl-1H-tetrazol-5-yl)(phenyl)methyl)-4-(3,5-dichloropyridin-4-yl)piperazine], the inhibition at 10 µM stood at 101%.
For `CCCCn1nnnc1CN1CCN(c2c(Cl)cncc2Cl)CC1` [Compound 5, 1-((1-butyl-1H-tetrazol-5-yl)methyl)-4-(3,5-dichloropyridin-4-yl)piperazine], the inhibition at 10 µM is 95.2% and 1710 nM corresponded to half-maximal inhibition (IC50).
As to `CCCCn1nnnc1C(C)N1CCN(c2c(Cl)cncc2Cl)CC1` (centres unmarked) [Compound 6, 1-(1-(1-butyl-1H-tetrazol-5-yl)ethyl)-4-(3,5-dichloropyridin-4-yl)piperazine], the inhibition at 10 µM is 95.3%.
For `CCCCn1nnnc1C(c1cccc(OC)c1)N1CCN(c2c(Cl)cncc2Cl)CC1` (centres unmarked) [Compound 7, 1-((1-butyl-1H-tetrazol-5-yl)(3-methoxyphenyl)methyl)-4-(3,5-dichloropyridin-4-yl)piperazine], the inhibition at 10 µM worked out at 108%.
Regarding `CCCCn1nnnc1C(c1cccc(F)c1)N1CCN(c2c(Cl)cncc2Cl)CC1` (centres unmarked) [Compound 8], the inhibition at 10 µM was 95.3%.
As for `CC(C)(C)n1nnnc1C(c1cccs1)N1CCN(c2c(Cl)cncc2Cl)CC1` (centres unmarked) [Compound 9], the inhibition at 10 µM was 104%.
Turning to `CCCCn1nnnc1C(c1cccs1)N1CCN(c2c(Cl)cncc2Cl)CC1` (centres unmarked) [Compound 10, 1-((1-butyl-1H-tetrazol-5-yl)(thiophen-2-yl)methyl)-4-(3,5-dichloropyridin-4-yl)piperazine], the inhibition at 10 µM was determined as 98.2%.
In the case of `CCCCn1nnnc1C(c1ccc2c(c1)OCO2)N1CCN(c2c(Cl)cncc2Cl)CC1` (centres unmarked) [Compound 11, 1-(benzo[d][1,3]dioxol-5-yl(1-butyl-1H-tetrazol-5-yl)methyl)-4-(3,5-dichloropyridin-4-yl)piperazine], the inhibition at 10 µM was 98.4%.
The same measure, in the same setting: with `CCCCn1nnnc1C(c1ccc2[nH]ccc2c1)N1CCN(c2c(Cl)cncc2Cl)CC1` (centres unmarked) [Compound 12, 5-((1-butyl-1H-tetrazol-5-yl)(4-(3,5-dichloropyridin-4-yl)piperazin-1-yl)methyl)-1H-indole] the figure was 93.9%; with `CC(C)n1nnnc1C(c1cccc(O)c1)N1CCN(c2c(Cl)cncc2Cl)CC1` (centres unmarked) [Compound 15, 3-((4-(3,5-dichloropyridin-4-yl)piperazin-1-yl)(1-isopropyl-1H-tetrazol-5-yl)methyl)phenol], 86%.
For the compound `CC(C)(C)n1nnnc1C(c1cccc(O)c1)N1CCN(c2c(Cl)cncc2Cl)CC1` (centres unmarked) [Compound 16, 3-((1-(tert-butyl)-1H-tetrazol-5-yl)(4-(3,5-dichloropyridin-4-yl)piperazin-1-yl)methyl)phenol], the inhibition at 10 µM is 102%.
`Oc1cccc(C(c2nnnn2C2CCCC2)N2CCN(c3c(Cl)cncc3Cl)CC2)c1` (centres unmarked) [Compound 17, 3-((1-cyclopentyl-1H-tetrazol-5-yl)(4-(3,5-dichloropyridin-4-yl)piperazin-1-yl)methyl)phenol]: the inhibition at 10 µM is 108%.
On to `Oc1cccc(C(c2nnnn2C2CCCCC2)N2CCN(c3c(Cl)cncc3Cl)CC2)c1` (centres unmarked) [Compound 18, 3-((1-cyclohexyl-1H-tetrazol-5-yl)(4-(3,5-dichloropyridin-4-yl)piperazin-1-yl)methyl)phenol], for which the inhibition at 10 µM amounted to 110%.
As for `Oc1cccc(C(c2nnnn2Cc2ccccc2)N2CCN(c3c(Cl)cncc3Cl)CC2)c1` (centres unmarked) [Compound 19, 3-((1-benzyl-1H-tetrazol-5-yl)(4-(3,5-dichloropyridin-4-yl)piperazin-1-yl)methyl)phenol], the inhibition at 10 µM came to 120% and the IC50 was found to be 134 nM.
For `Cc1cccc(C)c1-n1nnnc1C(c1cccc(O)c1)N1CCN(c2c(Cl)cncc2Cl)CC1` (centres unmarked) [Compound 20, 3-((4-(3,5-dichloropyridin-4-yl)piperazin-1-yl)(1-(2,6-dimethylphenyl)-1H-tetrazol-5-yl)methyl)phenol], the inhibition at 10 µM amounted to 111%.
`CCCCNC(=O)C(c1cccc(O)c1)N1CCN(c2c(Cl)cncc2Cl)CC1` (centres unmarked) [Compound 21, N-butyl-2-(4-(3,5-dichloropyridin-4-yl)piperazin-1-yl)-2-(3-hydroxyphenyl)acetamide]: the inhibition at 10 µM worked out at 93%.
Same read-out and setting: with `Oc1cccc(CN2CCN(c3c(Cl)cncc3Cl)CC2)c1` [Compound 22, 3-((4-(3,5-dichloropyridin-4-yl)piperazin-1-yl)methyl)phenol] the figure was 68.1%; with `Clc1cncc(Cl)c1N1CCN(Cc2cc3ccccc3o2)CC1` [Compound 23, 1-(benzofuran-2-ylmethyl)-4-(3,5-dichloropyridin-4-yl)piperazine], 101%.
For `CCCCn1nnnc1C(c1cccc(O)c1)N1CCN(c2c(Cl)cccc2Cl)CC1` (centres unmarked) [Compound 25, 3-((1-butyl-1H-tetrazol-5-yl)(4-(2,6-dichlorophenyl)piperazin-1-yl)methyl)phenol], the inhibition at 10 µM amounted to 98% and the IC50 came out at 1600 nM.
With `CCCCn1nnnc1C(c1cccc(O)c1)N1CCN(c2ccncc2)CC1` (centres unmarked) [Compound 27, 3-((1-butyl-1H-tetrazol-5-yl)(4-(pyridin-4-yl)piperazin-1-yl)methyl)phenol], the inhibition at 10 µM was 1.04%.
For `CCCCn1nnnc1C(c1cc2ccccc2o1)N1CCN(c2c(Cl)cncc2Cl)CC1` (centres unmarked) [Compound 28, 1-(benzofuran-2-yl(1-butyl-1H-tetrazol-5-yl)methyl)-4-(3,5-dichloropyridin-4-yl)piperazine], the inhibition at 10 µM came out at 96.8%.
On to `CC(C)(C)n1nnnc1C(c1ccnc2ccccc12)N1CCN(c2c(Cl)cncc2Cl)CC1` (centres unmarked) [Compound 29, 4-((1-(tert-butyl)-1H-tetrazol-5-yl)(4-(3,5-dichloropyridin-4-yl)piperazin-1-yl)methyl)quinoline], for which the inhibition at 10 µM was determined as 108%.
Still for that read-out and setting: with `CCCCn1nnnc1C(c1ccncc1)N1CCN(c2c(Cl)cncc2Cl)CC1` (centres unmarked) [Compound 30, 1-((1-butyl-1H-tetrazol-5-yl)(pyridin-4-yl)methyl)-4-(3,5-dichloropyridin-4-yl)piperazine] the figure was 100%.
Turning to `CC(C)(C)n1nnnc1C(c1ccncc1)N1CCN(c2c(Cl)cncc2Cl)CC1` (centres unmarked) [Compound 31, 1-((1-(tert-butyl)-1H-tetrazol-5-yl)(pyridin-4-yl)methyl)-4-(3,5-dichloropyridin-4-yl)piperazine], the inhibition at 10 µM was 91.4%.
For `CCCCn1nnnc1C(c1ccc(OC)cc1)N1CCN(c2c(Cl)cncc2Cl)CC1` (centres unmarked) [Compound 32, 1-((1-butyl-1H-tetrazol-5-yl)(4-methoxyphenyl)methyl)-4-(3,5-dichloropyridin-4-yl)piperazine], the inhibition at 10 µM stood at 91.6%.
On to `COc1ccc(C(c2nnnn2C(C)(C)C)N2CCN(c3c(Cl)cncc3Cl)CC2)cc1` (centres unmarked) [Compound 33, 1-((1-(tert-butyl)-1H-tetrazol-5-yl)(4-methoxyphenyl)methyl)-4-(3,5-dichloropyridin-4-yl)piperazine], for which the inhibition at 10 µM was found to be 97.5%.
Turning to `CCCCn1nnnc1C(c1ccc(C#N)cc1)N1CCN(c2c(Cl)cncc2Cl)CC1` (centres unmarked) [Compound 34, 4-((1-butyl-1H-tetrazol-5-yl)(4-(3,5-dichloropyridin-4-yl)piperazin-1-yl)methyl)benzonitrile], the inhibition at 10 µM was found to be 99.8%.
With `CC(C)(C)n1nnnc1C(c1ccc(C#N)cc1)N1CCN(c2c(Cl)cncc2Cl)CC1` (centres unmarked) [Compound 35, 4-((1-(tert-butyl)-1H-tetrazol-5-yl)(4-(3,5-dichloropyridin-4-yl)piperazin-1-yl)methyl)benzonitrile], the inhibition at 10 µM worked out at 106%.
Regarding `CCCCn1nnnc1C(c1ccc(F)cc1)N1CCN(c2c(Cl)cncc2Cl)CC1` (centres unmarked) [Compound 36, 1-((1-butyl-1H-tetrazol-5-yl)(4-fluorophenyl)methyl)-4-(3,5-dichloropyridin-4-yl)piperazine], the inhibition at 10 µM stood at 102%.
For the compound `CC(C)(C)n1nnnc1C(c1ccc(F)cc1)N1CCN(c2c(Cl)cncc2Cl)CC1` (centres unmarked) [Compound 37, 1-((1-(tert-butyl)-1H-tetrazol-5-yl)(4-fluorophenyl)methyl)-4-(3,5-dichloropyridin-4-yl)piperazine], the inhibition at 10 µM is 111%.
Turning to `CCCCn1nnnc1C(c1cccc2ccccc12)N1CCN(c2c(Cl)cncc2Cl)CC1` (centres unmarked) [Compound 38, 1-((1-butyl-1H-tetrazol-5-yl)(naphthalen-1-yl)methyl)-4-(3,5-dichloropyridin-4-yl)piperazine], the inhibition at 10 µM worked out at 97.6%.
Same read-out and setting: in the case of `CC(C)(C)n1nnnc1C(c1cccc2ccccc12)N1CCN(c2c(Cl)cncc2Cl)CC1` (centres unmarked) [Compound 39, 1-((1-(tert-butyl)-1H-tetrazol-5-yl)(naphthalen-1-yl)methyl)-4-(3,5-dichloropyridin-4-yl)piperazine] it was 107%.
